# From PubChem BioAssay AID330 (DTP/NCI, 2004)
# Values joined by “and” are separate entries in the source; they are usually repeats but may differ in a detail not shown here. Identical values can stand only once. Toxic doses and inconclusive results are not listed.
# System: P388 leukemia ip, CD2F1 mice, survival T/C
# Test: NCI In Vivo Anticancer Drug Screen. Data for tumor model P388 Leukemia (intraperitoneal) in CD2F1 (CDF1) mice
# Conditions: endpoint: median survival time, higher = longer survival
# Method in brief: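 Mice carrying the transplanted tumor received test compound or vehicle. Survival was recorded in each group, and the value is the treated-group measurement divided by that of the vehicle-treated control group.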
# [1] = dose: 6.25 mg/kg/injection, schedule: Q01DX009 (ip), vehicle: saline with Tween-80
# [2] = dose: 25.0 mg/kg/injection, schedule: Q01DX009 (ip), vehicle: saline with Tween-80
# [3] = dose: 50.0 mg/kg/injection, schedule: Q01DX005 (ip), vehicle: saline with Tween-80
# [4] = dose: 200.0 mg/kg/injection, schedule: Q01DX005 (ip), vehicle: saline with Tween-80
# [5] = dose: 100.0 mg/kg/injection, schedule: Q01DX005 (ip), vehicle: saline with Tween-80
# [6] = dose: 120.0 mg/kg/injection, schedule: Q01DX005 (ip), vehicle: Klucel (hydroxypropylcellulose) (HPC)
smiles,measurement,setting,value
Cc1cc(=O)n2c(-c3ccccc3)csc2n1,T/C,"dose: 100.0 mg/kg/injection, schedule: Q04DX003 (ip), vehicle: Klucel (hydroxypropylcellulose) (HPC)",101 % of control
same,T/C,"dose: 200.0 mg/kg/injection, schedule: Q04DX003 (ip), vehicle: Klucel (hydroxypropylcellulose) (HPC)",110 % of control
same,T/C,"dose: 400.0 mg/kg/injection, schedule: Q04DX003 (ip), vehicle: Klucel (hydroxypropylcellulose) (HPC)",113 % of control
CC1CN1P(=S)(N1CCCCC1)N1CC1C (configuration not stated),T/C,"dose: 25.0 mg/kg/injection, schedule: Q01DX009 (ip), vehicle: suspension in saline",100 % of control
same,T/C,"dose: 50.0 mg/kg/injection, schedule: Q01DX009 (ip), vehicle: suspension in saline",96 % of control
same,T/C,"dose: 100.0 mg/kg/injection, schedule: Q01DX009 (ip), vehicle: suspension in saline",102 % of control
same,T/C,"dose: 200.0 mg/kg/injection, schedule: Q01DX009 (ip), vehicle: suspension in saline",105 % of control
Cc1cc2c(c3ccccc13)C(=N/N=C(N)N)/C(=N/N=C(N)N)C2,T/C,[1],101 % of control
same,T/C,"dose: 12.5 mg/kg/injection, schedule: Q01DX009 (ip), vehicle: saline with Tween-80",108 % of control
same,T/C,"dose: 25.0 mg/kg/injection, schedule: Q01DX001 (ip), vehicle: saline with Tween-80",105 % of control
same,T/C,[2],101 % of control
same,T/C,"dose: 50.0 mg/kg/injection, schedule: Q01DX001 (ip), vehicle: saline with Tween-80",97 % of control
COC1=CC(=O)c2ncc(Cl)cc2C1=O,T/C,"dose: 30.0 mg/kg/injection, schedule: Q01DX005 (ip), vehicle: saline with Tween-80",111 % of control
same,T/C,"dose: 60.0 mg/kg/injection, schedule: Q01DX005 (ip), vehicle: saline with Tween-80",100 % of control and 93 % of control
Cc1cc(Br)c2c(c1N)C(=O)c1ccccc1C2=O,T/C,"dose: 50.0 mg/kg/injection, schedule: Q01DX009 (ip), vehicle: Klucel (hydroxypropylcellulose) (HPC)",99 % of control
same,T/C,"dose: 100.0 mg/kg/injection, schedule: Q01DX009 (ip), vehicle: Klucel (hydroxypropylcellulose) (HPC)",107 % of control
same,T/C,"dose: 200.0 mg/kg/injection, schedule: Q01DX009 (ip), vehicle: Klucel (hydroxypropylcellulose) (HPC)",102 % of control
c1ccc2c(c1)[As]=c1ccccc1=[As]2 (configuration not stated),T/C,"dose: 0.79 mg/kg/injection, schedule: Q01DX009 (ip), vehicle: saline",107 % of control
same,T/C,"dose: 1.56 mg/kg/injection, schedule: Q01DX009 (ip), vehicle: saline",105 % of control and 118 % of control
same,T/C,"dose: 3.12 mg/kg/injection, schedule: Q01DX009 (ip), vehicle: saline",122 % of control
same,T/C,"dose: 6.25 mg/kg/injection, schedule: Q01DX009 (ip), vehicle: saline",173 % of control
CCN(CC)Cc1cc(Nc2nc(/C=C/c3ccccc3)nc3ccccc23)ccc1O,T/C,"dose: 50.0 mg/kg/injection, schedule: Q01DX009 (ip), vehicle: distilled water + alcohol",97 % of control
same,T/C,"dose: 100.0 mg/kg/injection, schedule: Q01DX009 (ip), vehicle: distilled water + alcohol",100 % of control
same,T/C,"dose: 200.0 mg/kg/injection, schedule: Q01DX009 (ip), vehicle: distilled water + alcohol",98 % of control
c1ccc2c(NCCCCCCCCCCCCCCCCNc3c4ccccc4nc4ccccc34)c3ccccc3nc2c1,T/C,"dose: 0.62 mg/kg/injection, schedule: Q01DX009 (ip), vehicle: other",98 % of control
same,T/C,"dose: 1.25 mg/kg/injection, schedule: Q01DX009 (ip), vehicle: other",101 % of control
same,T/C,"dose: 2.5 mg/kg/injection, schedule: Q01DX009 (ip), vehicle: other",105 % of control
same,T/C,"dose: 5.0 mg/kg/injection, schedule: Q01DX009 (ip), vehicle: other",109 % of control
same,T/C,"dose: 10.0 mg/kg/injection, schedule: Q01DX009 (ip), vehicle: other",108 % of control
O=C(CC(=O)c1ccccc1)Nc1ccc(-c2nc3ccccc3c(=O)[nH]2)cc1,T/C,"dose: 50.0 mg/kg/injection, schedule: Q01DX009 (ip), vehicle: saline + alcohol",97 % of control
same,T/C,"dose: 100.0 mg/kg/injection, schedule: Q01DX009 (ip), vehicle: saline + alcohol",92 % of control
same,T/C,"dose: 200.0 mg/kg/injection, schedule: Q01DX009 (ip), vehicle: saline + alcohol",94 % of control
Cc1cccc(C2(C)C(=O)c3ccccc3C2=O)c1,T/C,"dose: 100.0 mg/kg/injection, schedule: Q04DX002 (ip), vehicle: saline",100 % of control
same,T/C,"dose: 200.0 mg/kg/injection, schedule: Q04DX002 (ip), vehicle: saline",105 % of control
same,T/C,"dose: 400.0 mg/kg/injection, schedule: Q04DX002 (ip), vehicle: saline",102 % of control
Cc1cccc2c1Oc1ccccc1C2NC(=O)c1ccccc1 (configuration not stated),T/C,"dose: 12.5 mg/kg/injection, schedule: Q01DX005 (ip), vehicle: saline with Tween-80",86 % of control
same,T/C,"dose: 25.0 mg/kg/injection, schedule: Q01DX005 (ip), vehicle: saline with Tween-80",89 % of control
same,T/C,[3],86 % of control and 88 % of control
same,T/C,[4],87 % of control
CC(CO)CC(C)(C)C (configuration not stated),T/C,"dose: 25.0 mg/kg/injection, schedule: Q01DX005 (ip), vehicle: saline",101 % of control
same,T/C,"dose: 50.0 mg/kg/injection, schedule: Q01DX005 (ip), vehicle: saline",108 % of control
same,T/C,"dose: 100.0 mg/kg/injection, schedule: Q01DX005 (ip), vehicle: saline",104 % of control
same,T/C,"dose: 200.0 mg/kg/injection, schedule: Q01DX005 (ip), vehicle: saline",109 % of control
Cn1c2ccccc2c(=O)c2cc(NC(=O)CCCCCCCC(=O)Nc3ccc4c(c3)c(=O)c3ccccc3n4C)ccc21,T/C,[3],92 % of control
same,T/C,[5],97 % of control
same,T/C,[4],101 % of control
COC1=C(N=[N+]=[N-])C(=O)C(OC)=C(N=[N+]=[N-])C1=O,T/C,"dose: 5.0 mg/kg/injection, schedule: Q01DX009 (ip), vehicle: saline with Tween-80",90 % of control
same,T/C,"dose: 10.0 mg/kg/injection, schedule: Q01DX009 (ip), vehicle: saline with Tween-80",90 % of control
same,T/C,"dose: 20.0 mg/kg/injection, schedule: Q01DX009 (ip), vehicle: saline with Tween-80",100 % of control
O=C1c2ccccc2C(=O)N1CC[P+](c1ccccc1)(c1ccccc1)c1ccccc1,T/C,"dose: 0.78 mg/kg/injection, schedule: Q01DX009 (ip), vehicle: water",87 % of control
same,T/C,"dose: 1.56 mg/kg/injection, schedule: Q01DX009 (ip), vehicle: water",112 % of control and 103 % of control and 115 % of control
same,T/C,"dose: 3.13 mg/kg/injection, schedule: Q01DX009 (ip), vehicle: saline with Tween-80",121 % of control
same,T/C,"dose: 3.13 mg/kg/injection, schedule: Q01DX009 (ip), vehicle: water",123 % of control and 118 % of control and 120 % of control
same,T/C,[1],88 % of control
same,T/C,"dose: 12.5 mg/kg/injection, schedule: Q01DX009 (ip), vehicle: water",123 % of control and 105 % of control
same,T/C,"dose: 18.8 mg/kg/injection, schedule: Q01DX009 (ip), vehicle: water",93 % of control
same,T/C,[2],123 % of control
same,T/C,"dose: 25.0 mg/kg/injection, schedule: Q01DX009 (ip), vehicle: water",98 % of control
NC(=O)N=Nc1ccc(Br)cc1,T/C,[3],102 % of control
same,T/C,[5],102 % of control
same,T/C,[4],93 % of control
COC(=O)C(Cc1cnc[nH]1)NC(=O)C(Cc1c[nH]c2ccccc12)NC(=O)OC(C)(C)C (configuration not stated),T/C,"dose: 12.5 mg/kg/injection, schedule: Q01DX009 (ip), vehicle: other",100 % of control
same,T/C,"dose: 25.0 mg/kg/injection, schedule: Q01DX009 (ip), vehicle: other",96 % of control
same,T/C,"dose: 50.0 mg/kg/injection, schedule: Q01DX009 (ip), vehicle: other",96 % of control
same,T/C,"dose: 100.0 mg/kg/injection, schedule: Q01DX009 (ip), vehicle: other",95 % of control
same,T/C,"dose: 200.0 mg/kg/injection, schedule: Q01DX009 (ip), vehicle: other",91 % of control
CC(=O)c1c(C)n(-c2ccccc2)c2c1nnc1ccccc12,T/C,"dose: 3.75 mg/kg/injection, schedule: Q01DX005 (ip), vehicle: Klucel (hydroxypropylcellulose) (HPC)",101 % of control
same,T/C,"dose: 7.5 mg/kg/injection, schedule: Q01DX005 (ip), vehicle: Klucel (hydroxypropylcellulose) (HPC)",93 % of control
same,T/C,"dose: 15.0 mg/kg/injection, schedule: Q01DX005 (ip), vehicle: Klucel (hydroxypropylcellulose) (HPC)",95 % of control
same,T/C,[6],96 % of control
COc1cccc2ccc(-c3ccccc3)[s+]c12,T/C,"dose: 60.0 mg/kg/injection, schedule: Q01DX005 (ip), vehicle: Klucel (hydroxypropylcellulose) (HPC)",97 % of control
same,T/C,[6],98 % of control
same,T/C,"dose: 240.0 mg/kg/injection, schedule: Q01DX005 (ip), vehicle: Klucel (hydroxypropylcellulose) (HPC)",104 % of control
CC(C)=CC(O)C/C(C)=C/CC/C(C)=C/CCC1(C)C(CCCO)/C(=C(/C)C=O)CCC1(C)O (configuration not stated),T/C,"dose: 25.0 mg/kg/injection, schedule: Q01DX005 (ip), vehicle: Klucel (hydroxypropylcellulose) (HPC)",106 % of control
same,T/C,"dose: 50.0 mg/kg/injection, schedule: Q01DX005 (ip), vehicle: Klucel (hydroxypropylcellulose) (HPC)",106 % of control
same,T/C,"dose: 100.0 mg/kg/injection, schedule: Q01DX005 (ip), vehicle: Klucel (hydroxypropylcellulose) (HPC)",119 % of control
same,T/C,"dose: 200.0 mg/kg/injection, schedule: Q01DX005 (ip), vehicle: Klucel (hydroxypropylcellulose) (HPC)",116 % of control
